One test addresses Wee1 (Homo sapiens, UniProt P30291). The test is described as follows: Wee1 pCDK1 activity (known assay). In kind it is cell-based. The protocol:
(§1) The Wee1 pCDK1 and PLK1 activities were determined using known assays.

The target in another test is PLK1 (Homo sapiens, UniProt P53350). In words: PLK1 activity (known assay). It is filed as biochemical. The procedure:
as §1

Chain of PLK1 (P53350 whole entry, species assumed): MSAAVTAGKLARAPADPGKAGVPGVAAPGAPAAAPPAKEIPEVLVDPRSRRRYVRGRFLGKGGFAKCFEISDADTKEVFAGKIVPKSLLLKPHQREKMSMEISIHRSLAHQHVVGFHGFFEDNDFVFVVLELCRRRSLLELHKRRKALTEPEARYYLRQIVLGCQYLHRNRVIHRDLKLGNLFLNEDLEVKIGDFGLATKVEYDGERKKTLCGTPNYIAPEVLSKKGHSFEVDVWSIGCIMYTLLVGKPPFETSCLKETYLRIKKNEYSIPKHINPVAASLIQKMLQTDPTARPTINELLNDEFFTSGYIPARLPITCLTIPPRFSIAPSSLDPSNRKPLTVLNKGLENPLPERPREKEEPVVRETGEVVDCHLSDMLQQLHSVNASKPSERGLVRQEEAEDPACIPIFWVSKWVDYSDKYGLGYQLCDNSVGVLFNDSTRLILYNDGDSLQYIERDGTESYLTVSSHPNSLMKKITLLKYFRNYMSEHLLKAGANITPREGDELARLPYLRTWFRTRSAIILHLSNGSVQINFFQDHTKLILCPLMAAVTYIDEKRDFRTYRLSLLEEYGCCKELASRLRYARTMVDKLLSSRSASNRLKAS
Chain of Wee1 (P30291 whole entry, species assumed): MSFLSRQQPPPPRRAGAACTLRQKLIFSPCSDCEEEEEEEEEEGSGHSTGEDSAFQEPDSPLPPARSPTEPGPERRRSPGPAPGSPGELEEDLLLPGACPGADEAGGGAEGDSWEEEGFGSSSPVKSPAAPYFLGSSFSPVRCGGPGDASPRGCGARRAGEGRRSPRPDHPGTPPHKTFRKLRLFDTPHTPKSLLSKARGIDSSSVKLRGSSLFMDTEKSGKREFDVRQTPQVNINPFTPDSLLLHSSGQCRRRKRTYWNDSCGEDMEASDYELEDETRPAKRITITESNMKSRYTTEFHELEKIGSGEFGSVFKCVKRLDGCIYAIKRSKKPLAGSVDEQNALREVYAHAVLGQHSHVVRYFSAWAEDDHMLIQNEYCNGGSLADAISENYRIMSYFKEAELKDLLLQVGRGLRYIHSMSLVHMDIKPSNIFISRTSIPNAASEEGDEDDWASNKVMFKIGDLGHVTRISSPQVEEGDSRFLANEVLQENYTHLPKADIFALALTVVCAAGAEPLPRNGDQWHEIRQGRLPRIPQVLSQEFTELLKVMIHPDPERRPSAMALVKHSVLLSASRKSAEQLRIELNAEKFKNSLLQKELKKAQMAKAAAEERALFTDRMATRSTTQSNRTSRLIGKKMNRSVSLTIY

For orientation: IC50 means the midpoint of a concentration-inhibition curve. The low end stands for inhibition by little substance, the high end for a need for much substance. Turning to `CCC1(O)CCc2ccc(Nc3nc(Nc4ccc(N5CCN(C)C(C)C5)cc4)ncc3C#N)nc21` (centres unmarked) [Example 52, 2-[4-(3,4-dimethylpiperazin-1-yl)anilino]-4-[(7-ethyl-7-hydroxy-5,6-dihydrocyclopenta[b]pyridin-2-yl)amino]pyrimidine-5-carbonitrile], the IC50 is 250 to 500 nM against Wee1 and no more than 100 nM on PLK1.
Taken in the same sequence, the figures for `CCC1(O)CCc2ccc(Nc3nc(Nc4ccc(N5CCN(C(C)=O)C6(CC6)C5)cc4)ncc3C#N)nc21` (centres unmarked) [Example 54, 2-[4-(4-acetyl-4,7-diazaspiro[2.5]octan-7-yl)anilino]-4-[(7-ethyl-7-hydroxy-5,6-dihydrocyclopenta[b]pyridin-2-yl)amino]pyrimidine-5-carbonitrile] were 250 to 500 nM and no more than 100 nM.
Taken in the same sequence, the figures for `CCC1(O)CCc2ccc(Nc3nc(Nc4ccc5c(c4)CNCC54CC4)ncc3C#N)nc21` (centres unmarked) [Example 55, 4-[(7-ethyl-7-hydroxy-5,6-dihydrocyclopenta[b]pyridin-2-yl)amino]-2-(spiro[2,3-dihydro-1H-isoquinoline-4,1′-cyclopropane]-7-ylamino)pyrimidine-5-carbonitrile] were greater than 1000 nM and no more than 100 nM.
For the compound `CCC1(O)CCc2ccc(Nc3nc(Nc4ccc5c(c4)CN(C)CC54CC4)ncc3C#N)nc21` (centres unmarked) [Example 56, 4-[(7-ethyl-7-hydroxy-5,6-dihydrocyclopenta[b]pyridin-2-yl)amino]-2-[(2-methylspiro[1,3-dihydroisoquinoline-4,1′-cyclopropane]-7-yl)amino]pyrimidine-5-carbonitrile], the IC50 against Wee1 and against PLK1 was 100 to 250 nM in each case.
Turning to `CN1CC2CCC(C1)N2c1ccc(Nc2ncc(C#N)c(Nc3ccc4c(n3)C(C)(O)CC4)n2)cc1` (centres unmarked) [Example 57, 4-[(7-hydroxy-7-methyl-5,6-dihydrocyclopenta[b]pyridin-2-yl)amino]-2-[4-(3-methyl-3,8-diazabicyclo[3.2.1]octan-8-yl)anilino]pyrimidine-5-carbonitrile], the results for the IC50 against Wee1 and against PLK1 were 250 to 500 nM and greater than 1000 nM, respectively.
Taken in the same sequence, the figures for `CN1CCc2cc(Nc3ncc(C#N)c(Nc4ccc5c(n4)C(C)(O)CC5)n3)ccc2C1(C)C` (centres unmarked) [Example 61, 4-[(7-hydroxy-7-methyl-5,6-dihydrocyclopenta[b]pyridin-2-yl)amino]-2-[(1,1,2-trimethyl-3,4-dihydroisoquinolin-6-yl)amino]pyrimidine-5-carbonitrile] were 250 to 500 nM and greater than 1000 nM.
Consider `Cc1cc(Nc2ncc(C#N)c(Nc3cccc(N4CCCC4=O)n3)n2)ccc1C1CCN(C)CC1` [Example 62, 2-[3-methyl-4-(1-methyl-4-piperidyl)anilino]-4-[[6-(2-oxopyrrolidin-1-yl)-2-pyridyl]amino]pyrimidine-5-carbonitrile], for which the IC50 at Wee1 was no more than 100 nM; at PLK1 it was 250 to 500 nM.
For `COCc1cc(Nc2ncc(C#N)c(Nc3cccc(N4CCCC4=O)n3)n2)ccc1C1CCN(C)CC1` [Example 63, 2-[3-(methoxymethyl)-4-(1-methyl-4-piperidyl)anilino]-4-[[6-(2-oxopyrrolidin-1-yl)-2-pyridyl]amino]pyrimidine-5-carbonitrile], the values for the IC50 on Wee1 and on PLK1 were 500 to 1000 nM and greater than 1000 nM, respectively.
For the compound `C[C@@H]1CN(C)CCN1c1ccc(Nc2ncc(C#N)c(Nc3cccc(N4CCCC4=O)n3)n2)cc1` [Example 64, 4-[[6-(2-oxopyrrolidin-1-yl)-2-pyridyl]amino]-2-[4-[(2R)-2,4-dimethylpiperazin-1-yl]anilino]pyrimidine-5-carbonitrile], the IC50 was 250 to 500 nM against Wee1 and greater than 1000 nM against PLK1.
Taken in the same sequence, the figures for `C[C@H]1CN(C)CCN1c1ccc(Nc2ncc(C#N)c(Nc3cccc(N4CCCC4=O)n3)n2)cc1` [Example 65, 4-[[6-(2-oxopyrrolidin-1-yl)-2-pyridyl]amino]-2-[4-[(2S)-2,4-dimethylpiperazin-1-yl]anilino]pyrimidine-5-carbonitrile] were 100 to 250 nM and greater than 1000 nM.
As to `COCc1cc(Nc2ncc(C#N)c(Nc3cccc(N4CCCC4=O)n3)n2)ccc1N1CCN(C)CC1` [Example 66, 2-[3-(methoxymethyl)-4-(4-methylpiperazin-1-yl)anilino]-4-[[6-(2-oxopyrrolidin-1-yl)-2-pyridyl]amino]pyrimidine-5-carbonitrile], the results for the IC50 on Wee1 and against PLK1 were 250 to 500 nM and greater than 1000 nM, respectively.
In the case of `CN1CCC(c2ccc(Nc3ncc(C#N)c(Nc4cccc(N5CCCC5=O)n4)n3)cc2)CC1=O` (centres unmarked) [Example 67, 2-[4-(1-methyl-2-oxo-4-piperidyl)anilino]-4-[[6-(2-oxopyrrolidin-1-yl)-2-pyridyl]amino]pyrimidine-5-carbonitrile], the results for the IC50 at Wee1 and on PLK1 were 500 to 1000 nM and greater than 1000 nM, respectively.
With `CCC1CN(C)CCN1c1ccc(Nc2ncc(C#N)c(Nc3cccc(N4CCCC4=O)n3)n2)cc1` (centres unmarked) [Example 68, 2-[4-(2-ethyl-4-methyl-piperazin-1-yl)anilino]-4-[[6-(2-oxopyrrolidin-1-yl)-2-pyridyl]amino]pyrimidine-5-carbonitrile], the half-maximal inhibitory concentration (IC50) is 100 to 250 nM against Wee1 and greater than 1000 nM on PLK1.
The like results for `COCC1CN(C)CCN1c1ccc(Nc2ncc(C#N)c(Nc3cccc(N4CCCC4=O)n3)n2)cc1` (centres unmarked) [Example 69, 2-[4-[2-(methoxymethyl)-4-methyl-piperazin-1-yl]anilino]-4-[[6-(2-oxopyrrolidin-1-yl)-2-pyridyl]amino]pyrimidine-5-carbonitrile] were, in that order, 250 to 500 nM and greater than 1000 nM.
In the case of `CN1CC2CC1CN2c1ccc(Nc2ncc(C#N)c(Nc3cccc(N4CCCC4=O)n3)n2)cc1` (centres unmarked) [Example 70, 2-[4-(5-methyl-2,5-diazabicyclo[2.2.1]heptan-2-yl)anilino]-4-[[6-(2-oxopyrrolidin-1-yl)-2-pyridyl]amino]pyrimidine-5-carbonitrile], the IC50 at Wee1 was 250 to 500 nM; on PLK1, no more than 100 nM.
With `CN1CCN(c2ccc(Nc3ncc(C#N)c(Nc4cccc(N5CCCC5=O)n4)n3)cc2)CC1=O` [Example 71, 2-[4-(4-methyl-3-oxo-piperazin-1-yl)anilino]-4-[[6-(2-oxopyrrolidin-1-yl)-2-pyridyl]amino]pyrimidine-5-carbonitrile], the half-inhibitory concentration (IC50) on Wee1 fell in the range of 500 to 1000 nM; at PLK1, 250 to 500 nM.
The like results for `CN1CCc2cc(Nc3ncc(C#N)c(Nc4cccc(N5CCCC5=O)n4)n3)ccc2C1` [Example 72, 2-[(2-methyl-3,4-dihydro-1H-isoquinolin-6-yl)amino]-4-[[6-(2-oxopyrrolidin-1-yl)-2-pyridyl]amino]pyrimidine-5-carbonitrile] were, in that order, no more than 100 nM and greater than 1000 nM.
Regarding `Cc1cc(Nc2ncc(C#N)c(Nc3cccc(N4CCCC4=O)n3)n2)cc2c1CN(C)CC2` [Example 73, 2-[(2,8-dimethyl-3,4-dihydro-1H-isoquinolin-6-yl)amino]-4-[[6-(2-oxopyrrolidin-1-yl)-2-pyridyl]amino]pyrimidine-5-carbonitrile], the IC50 against Wee1 is no more than 100 nM; at PLK1 it was greater than 1000 nM.
Taken in the same sequence, the figures for `CN1CCc2ccc(Nc3ncc(C#N)c(Nc4cccc(N5CCCC5=O)n4)n3)cc2C1` [Example 74, 2-[(2-methyl-3,4-dihydro-1H-isoquinolin-7-yl)amino]-4-[[6-(2-oxopyrrolidin-1-yl)-2-pyridyl]amino]pyrimidine-5-carbonitrile] were 100 to 250 nM and greater than 1000 nM.
With `Cc1cc(Nc2ncc(C#N)c(Nc3cccc(N4CCCC4=O)n3)n2)cc2c1CCN(C)C2` [Example 75, 2-[(2,5-dimethyl-3,4-dihydro-1H-isoquinolin-7-yl)amino]-4-[[6-(2-oxopyrrolidin-1-yl)-2-pyridyl]amino]pyrimidine-5-carbonitrile], the IC50 against Wee1 is no more than 100 nM; against PLK1, 100 to 250 nM.
Turning to `CN1CCc2cc(Nc3ncc(C#N)c(Nc4cccc(N5CCCC5=O)n4)n3)cc(Cl)c2C1` [Example 76, 2-[(8-chloro-2-methyl-3,4-dihydro-1H-isoquinolin-6-yl)amino]-4-[[6-(2-oxopyrrolidin-1-yl)-2-pyridyl]amino]pyrimidine-5-carbonitrile], the IC50 on Wee1 is 500 to 1000 nM; against PLK1, greater than 1000 nM.
Consider `CN1CCC(O)(c2ccc(Nc3ncc(C#N)c(Nc4cccc(N5CCCC5=O)n4)n3)cc2)CC1` [Example 78, 2-[4-(4-hydroxy-1-methyl-4-piperidyl)anilino]-4-[[6-(2-oxopyrrolidin-1-yl)-2-pyridyl]amino]pyrimidine-5-carbonitrile], for which the IC50 against Wee1 and against PLK1 was greater than 1000 nM throughout.

For the origin of these results see patent US20240228459A1 (Boundless Bio, Inc., priority 2022, published 2024).
